Test results taken from US20090258824A1, “Amyloid beta receptor and uses thereof” (priority 2005, published 2009).

Test system: cultured cortical neurons
Assay: Calcium imaging (Fluo-4) in cultured cortical neurons
Format: cell-based, rat (Sprague Dawley)
Conditions: antagonist co-applied with Aβ*56
Experimental: Cultured neurons. Cultures of cortical neurons from P1 Sprague Dawley rat pups were prepared according to previously published protocols (Dubinsky, J Neurosci 13, 623-631 (1993)). Dissections of cortical mantels excluded meninges, hippocampus, septal regions, and basal ganglia. […]
Size-exclusion chromatography (SEC). […] Fractions of 500 μl of eluate in 50 mM Ammonium Acetate, pH 8.5, were diluted 1:100 or 1:750 in neurophysiology experiments, or were concentrated using a vacuum system (VacuFuge™, Brinkmann-Eppendorf) and analyzed by silver staining.
Calcium imaging. […] Calcium indicator dye fluorescence was monitored with 488 nanometer (nm) excitation, a 500 nm long-pass barrier filter and confocal microscopy (Odyssey scanner, Noran, Middleton, Wis.). […] To quantify neuronal Ca^2+ responses, Ca^2+ fluorescence was measured from single neurons or clusters of neurons. Baseline fluorescence was normalized to one and the area between the curve and the baseline calculated using Origin software analysis routines (OriginLab Corporation, Northampton, Mass.).

| Compound | effect on the Aβ*56-induced increase in Ca2+ signal |
| --- | --- |
| O=C(O)C1CN(CCCP(=O)(O)O)CCN1 (racemic) [CPP, (+/−)-3-(2-carboxypiperazin-4-yl)-propyl-1-phosphonic acid] | completely abolished |
| CCC(N)(C(=O)O)c1ccc(C(=O)O)cc1 (racemic) [E4CPG, (RS)-α-Ethyl-4-carboxyphenylglycine] | failed to block |
